Assay results as given in patent US6914045B2, “Glycopeptide antibiotics” (Wyeth Holdings Corporation, priority 2001, dated 2005).
≈ marks a conversion by molar mass, not a printed value.

Tests used:
Assay in all cases: in vitro antibacterial evaluation, MIC by broth dilution
Assay type in all cases: cell-based
Enterococcus sp. = conditions: broth dilution, 18 hours at 35° C.; for MIC Enterococcus faecalis (ATCC 29212): strain ATCC 29212; for MIC Enterococcus faecalis (GC 2242): strain GC 2242; for MIC Enterococcus faecium (GC 2243): strain GC 2243; for MIC Enterococcus faecalis (GC 2691): strain GC 2691; for MIC Enterococcus faecalis (GC 3059): strain GC 3059; for MIC Enterococcus faecalis (GC 4552): strain GC 4552; for MIC Enterococcus faecalis (GC 4553): strain GC 4553; for MIC Enterococcus faecalis (GC 4554): strain GC 4554; for MIC Enterococcus faecium (GC 4556): strain GC 4556; for MIC Enterococcus faecium (GC 4557): strain GC 4557; for MIC Enterococcus avium (GC 4558): strain GC 4558; for MIC Enterococcus faecalis (GC 6189): strain GC 6189
How it was run: (§1)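 Broth dilution per NCCLS M7-A2 in Mueller-Hinton II medium, inoculum 5×10^5 CFU/mL, antibiotic range 64-0.06 μg/mL. MIC taken as lowest concentration inhibiting growth; Gram-positive panel includes recent clinical isolates resistant to methicillin, penicillin and/or vancomycin.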

Escherichia coli = system: Escherichia coli
How it was run: as §1

Staphylococcus sp. = conditions: broth dilution, 18 hours at 35° C.; for MIC Staphylococcus aureus (GC 1131): strain GC 1131
How it was run: as §1

Streptococcus sp. = conditions: broth dilution, 18 hours at 35° C.; for MIC Streptococcus pneumoniae (ATCC 6301): strain ATCC 6301; for MIC Streptococcus pneumoniae (GC 1894): strain GC 1894; for MIC Streptococcus pyogenes (GC 4563): strain GC 4563; for MIC Streptococcus agalactiae (GC 4564): strain GC 4564; for MIC Streptococcus pneumoniae (GC 4565): strain GC 4565
How it was run: as §1

**Q.** With CC(c1ccccc1)C1NC(=O)CNC(=O)C(CO)NC(=O)C(C(O)C2CNC(=N)N2C2OC(CO)C(O)C(O)C2O)NC(=O)C(C(O)C2CNC(=N)N2)NC(=O)C(Cc2ccc(OC3OC(CO)C(OC4OC5COC(c6ccc(C(=O)c7ccccc7)cc6)OC5C(O)C4O)C(O)C3O)cc2)NC1=O (centres unmarked) [Example 173] as the compound, how does the “MIC Enterococcus faecalis (ATCC 29212)” value (Enterococcus sp.; inoculum 5×10^5 CFU/mL) read?
**A.** 1 µg/mL (≈ 0.672 µM)

**Q.** What about the “MIC Enterococcus faecalis (GC 2242)” value (Enterococcus sp.; inoculum 5×10^5 CFU/mL) of the same compound?
**A.** 2 µg/mL (≈ 1.34 µM)

**Q.** What about the “MIC Enterococcus faecium (GC 2243)” value (Enterococcus sp.; inoculum 5×10^5 CFU/mL) of the same compound?
**A.** 2 µg/mL (≈ 1.34 µM)

**Q.** And the “MIC Enterococcus faecalis (GC 2691)” value (Enterococcus sp.; inoculum 5×10^5 CFU/mL)?
**A.** 2 µg/mL (≈ 1.34 µM)

**Q.** And the “MIC Enterococcus faecalis (GC 3059)” value (Enterococcus sp.; inoculum 5×10^5 CFU/mL)?
**A.** 2 µg/mL (≈ 1.34 µM)

**Q.** What about the “MIC Enterococcus faecalis (GC 4552)” value (Enterococcus sp.; inoculum 5×10^5 CFU/mL) of the same compound?
**A.** 2 µg/mL (≈ 1.34 µM)

**Q.** What about the “MIC Enterococcus faecalis (GC 4553)” value (Enterococcus sp.; inoculum 5×10^5 CFU/mL) of the same compound?
**A.** 2 µg/mL (≈ 1.34 µM)

**Q.** And the “MIC Enterococcus faecalis (GC 4554)” value (Enterococcus sp.; inoculum 5×10^5 CFU/mL)?
**A.** 2 µg/mL (≈ 1.34 µM)

**Q.** What about the “MIC Enterococcus faecium (GC 4556)” value (Enterococcus sp.; inoculum 5×10^5 CFU/mL) of the same compound?
**A.** 1 µg/mL (≈ 0.672 µM)

**Q.** What about the “MIC Enterococcus faecium (GC 4557)” value (Enterococcus sp.; inoculum 5×10^5 CFU/mL) of the same compound?
**A.** 2 µg/mL (≈ 1.34 µM)

**Q.** And the “MIC Enterococcus avium (GC 4558)” value (Enterococcus sp.; inoculum 5×10^5 CFU/mL)?
**A.** 1 µg/mL (≈ 0.672 µM)

**Q.** What about the “MIC Enterococcus faecalis (GC 6189)” value (Enterococcus sp.; inoculum 5×10^5 CFU/mL) of the same compound?
**A.** 1 µg/mL (≈ 0.672 µM)

**Q.** And the “MIC Enterococcus faecalis (ATCC 29212)” value (Enterococcus sp.)?
**A.** 1 µg/mL (≈ 0.672 µM)

**Q.** What about the “MIC Enterococcus faecalis (GC 2242)” value (Enterococcus sp.) of the same compound?
**A.** 2 µg/mL (≈ 1.34 µM)

**Q.** And the “MIC Enterococcus faecium (GC 2243)” value (Enterococcus sp.)?
**A.** 2 µg/mL (≈ 1.34 µM)

**Q.** What about the “MIC Enterococcus faecalis (GC 2691)” value (Enterococcus sp.) of the same compound?
**A.** 2 µg/mL (≈ 1.34 µM)

**Q.** And the “MIC Enterococcus faecalis (GC 3059)” value (Enterococcus sp.)?
**A.** 2 µg/mL (≈ 1.34 µM)

**Q.** And the “MIC Enterococcus faecalis (GC 4552)” value (Enterococcus sp.)?
**A.** 2 µg/mL (≈ 1.34 µM)

**Q.** And the “MIC Enterococcus faecalis (GC 4553)” value (Enterococcus sp.)?
**A.** 2 µg/mL (≈ 1.34 µM)

**Q.** And the “MIC Enterococcus faecalis (GC 4554)” value (Enterococcus sp.)?
**A.** 2 µg/mL (≈ 1.34 µM)

**Q.** What about the “MIC Enterococcus faecium (GC 4556)” value (Enterococcus sp.) of the same compound?
**A.** 1 µg/mL (≈ 0.672 µM)

**Q.** And the “MIC Enterococcus faecium (GC 4557)” value (Enterococcus sp.)?
**A.** 2 µg/mL (≈ 1.34 µM)

**Q.** What about the “MIC Enterococcus avium (GC 4558)” value (Enterococcus sp.) of the same compound?
**A.** 1 µg/mL (≈ 0.672 µM)

**Q.** And the “MIC Enterococcus faecalis (GC 6189)” value (Enterococcus sp.)?
**A.** 1 µg/mL (≈ 0.672 µM)

**Q.** What about the “MIC Escherichia coli (ATCC 25922)” value (Escherichia coli; strain ATCC 25922, 18 hours at 35° C.) of the same compound?
**A.** 32 µg/mL (≈ 21.5 µM)

**Q.** What about the “MIC Escherichia coli (GC 4559)” value (Escherichia coli; strain GC 4559, 18 hours at 35° C.) of the same compound?
**A.** 16 µg/mL (≈ 10.8 µM)

**Q.** And the “MIC Escherichia coli (GC 4560)” value (Escherichia coli; strain GC 4560, 18 hours at 35° C.)?
**A.** 0.5 µg/mL (≈ 0.336 µM)

**Q.** And the “MIC Staphylococcus aureus (GC 1131)” value (Staphylococcus sp.; inoculum 5×10^5 CFU/mL)?
**A.** 2 µg/mL (≈ 1.34 µM)

**Q.** And the “MIC Staphylococcus aureus (ATCC 29213)” value (Staphylococcus sp.; strain ATCC 29213)?
**A.** 1 µg/mL (≈ 0.672 µM)

**Q.** And the “MIC Staphylococcus aureus (GC 1131)” value (Staphylococcus sp.)?
**A.** 2 µg/mL (≈ 1.34 µM)

**Q.** And the “MIC Staphylococcus aureus (GC 3051)” value (Staphylococcus sp.; strain GC 3051)?
**A.** 0.5 µg/mL (≈ 0.336 µM)

**Q.** What about the “MIC Staphylococcus aureus (GC 3053)” value (Staphylococcus sp.; strain GC 3053) of the same compound?
**A.** 1 µg/mL (≈ 0.672 µM)

**Q.** And the “MIC Staphylococcus aureus (GC 4541)” value (Staphylococcus sp.; strain GC 4541)?
**A.** 0.5 µg/mL (≈ 0.336 µM)

**Q.** What about the “MIC Staphylococcus aureus (GC 4542)” value (Staphylococcus sp.; strain GC 4542) of the same compound?
**A.** 0.5 µg/mL (≈ 0.336 µM)

**Q.** And the “MIC Staphylococcus aureus-SMITH (GC 4543)” value (Staphylococcus sp.; strain GC 4543)?
**A.** 0.5 µg/mL (≈ 0.336 µM)

**Q.** And the “MIC Staphylococcus aureus (GC 4544)” value (Staphylococcus sp.; strain GC 4544)?
**A.** 2 µg/mL (≈ 1.34 µM)

**Q.** What about the “MIC Staphylococcus aureus (GC 4545)” value (Staphylococcus sp.; strain GC 4545) of the same compound?
**A.** 2 µg/mL (≈ 1.34 µM)

**Q.** What about the “MIC Staphylococcus haemolyticus (GC 4546)” value (Staphylococcus sp.; strain GC 4546) of the same compound?
**A.** 1 µg/mL (≈ 0.672 µM)

**Q.** And the “MIC Coagulase Negative Staphylococcus (GC 4547)” value (Staphylococcus sp.; strain GC 4547)?
**A.** 2 µg/mL (≈ 1.34 µM)

**Q.** And the “MIC Coagulase Negative Staphylococcus (GC 4548)” value (Staphylococcus sp.; strain GC 4548)?
**A.** 0.5 µg/mL (≈ 0.336 µM)

**Q.** What about the “MIC Coagulase Negative Staphylococcus (GC 4549)” value (Staphylococcus sp.; strain GC 4549) of the same compound?
**A.** 0.25 µg/mL (≈ 0.168 µM)

**Q.** And the “MIC Coagulase Negative Staphylococcus (GC 4551)” value (Staphylococcus sp.; strain GC 4551)?
**A.** 0.5 µg/mL (≈ 0.336 µM)

**Q.** And the “MIC Coagulase Negative Staphylococcus (GC 6257)” value (Staphylococcus sp.; strain GC 6257)?
**A.** 0.5 µg/mL (≈ 0.336 µM)

**Q.** What about the “MIC Streptococcus pneumoniae (ATCC 6301)” value (Streptococcus sp.; inoculum 5×10^5 CFU/mL) of the same compound?
**A.** <0.12 µg/mL

**Q.** And the “MIC Streptococcus pneumoniae (GC 1894)” value (Streptococcus sp.; inoculum 5×10^5 CFU/mL)?
**A.** <0.12 µg/mL

**Q.** And the “MIC Streptococcus pyogenes (GC 4563)” value (Streptococcus sp.; inoculum 5×10^5 CFU/mL)?
**A.** <0.12 µg/mL

**Q.** And the “MIC Streptococcus agalactiae (GC 4564)” value (Streptococcus sp.; inoculum 5×10^5 CFU/mL)?
**A.** <0.12 µg/mL

**Q.** And the “MIC Streptococcus pneumoniae (GC 4565)” value (Streptococcus sp.; inoculum 5×10^5 CFU/mL)?
**A.** <0.12 µg/mL

**Q.** What about the “MIC Streptococcus pneumoniae (ATCC 6301)” value (Streptococcus sp.) of the same compound?
**A.** <0.12 µg/mL

**Q.** What about the “MIC Streptococcus pneumoniae (GC 1894)” value (Streptococcus sp.) of the same compound?
**A.** <0.12 µg/mL

**Q.** And the “MIC Streptococcus pyogenes (GC 4563)” value (Streptococcus sp.)?
**A.** <0.12 µg/mL

**Q.** What about the “MIC Streptococcus agalactiae (GC 4564)” value (Streptococcus sp.) of the same compound?
**A.** <0.12 µg/mL

**Q.** What about the “MIC Streptococcus pneumoniae (GC 4565)” value (Streptococcus sp.) of the same compound?
**A.** <0.12 µg/mL
